According to article PMC10141580, “Cyclic Dichalcogenides Extend the Reach of Bioreductive Prodrugs to Harness Thiol/Disulfide Oxidoreductases: Applications to seco-Duocarmycins Targeting the Thioredoxin System” (ACS Central Science, 2023):
pIC50: −log10 of the molar value. “And” between values parts separate entries of the source, which are not always exact repeats. Equal values may be shown once. Read-outs that look alike come from different tables or passages of the source.

Test system: panel of 140 standard cancer cell lines
Experiment: ProliFiler-140 cancer cell line screen (CellTiterGlo, 72 h)
Type: cell-based
Details: for IC50: read-out: IC50 [M] (ProliFiler-140); for pIC50: read-out: IC50
Procedure: Incubations were performed for 72 h before automated viability readout with CellTiterGlo (Figure 8).
End of Figure S11 (part 5 of 5): ProliFiler-140 cancer cell line screening for cytotoxicity of the prodrugs.
8-data-point dose response curves from CellTiter-Glo® viability readout.
ProliFiler-140 cell line panel part V

With `COc1cc2cc(C(=O)N3C[C@@H](CCl)c4c3cc(OC(=O)N(CCC(=O)N3CCN(C)CC3)C3CCCCC3)c3ccccc43)[nH]c2c(OC)c1OC` [P-CC60-CBI-TMI] the IC50 (786-O (Kidney)) was 1.18e-07 M and 1.2e-07 M, the pIC50 (786-O) was 6.92 and the IC50 (A172 (Brain)) was 5.74e-07 M and 5.7e-07 M. The IC50 (A375 (Skin)) was 1.64e-07 M and 1.6e-07 M, the IC50 (A427 (Lung)) was 8.2e-07 M and 8.23e-07 M and the IC50 (A431 (Skin)) was 2.62e-07 M and 2.6e-07 M. The IC50 (A498 (Kidney)) was 3e-07 M, the pIC50 (A498) was 6.52 and the IC50 (A549 (Lung)) was 7.7e-07 M. For the same molecule, the pIC50 (A549) was 6.11, the IC50 (A2058 (Skin)) was 1e-07 M and 1.02e-07 M and the IC50 (A2780 (Ovary)) was 8.9e-08 M and 8.89e-08 M. The IC50 (AsPC-1 (Pancreas)) was 2.1e-06 M and 2.15e-06 M, the IC50 (BEN (Lung)) was 1.4e-06 M and 1.42e-06 M and the IC50 (BT-20 (Breast)) was 1.1e-06 M and 1.11e-06 M. For the same molecule, the IC50 (BxPC-3 (Pancreas)) was 6.62e-07 M and 6.6e-07 M, the pIC50 (CAKI-1) was 6.48 and the IC50 (COR-L279 (Lung)) was 7.4e-08 M and 7.36e-08 M. For the same molecule, the IC50 (COV434 (Ovary)) was 1.1e-07 M and 1.15e-07 M, the IC50 (Caki-1 (Kidney)) was 3.29e-07 M and 3.3e-07 M and the IC50 (Caki-2 (Kidney)) was 1.51e-06 M and 1.5e-06 M. For the same molecule, the IC50 (Calu-6 (Lung)) was 3.42e-07 M and 3.4e-07 M, the IC50 (Colo 205 (Colon)) was 7.6e-07 M and 7.61e-07 M and the IC50 (DLD-1 (Colon)) was 7.91e-07 M and 7.9e-07 M. For the same molecule, the IC50 (DU-145 (Prostate)) was 1.8e-07 M and 1.83e-07 M, the IC50 (DV90 (Lung)) was 9e-08 M and 9.04e-08 M and the IC50 (Detroit562 (Head/Neck)) was 3.15e-07 M and 3.2e-07 M. For the same molecule, the IC50 (EFM-19 (Breast)) was 9.6e-07 M and 9.62e-07 M, the IC50 (EFM-192A (Breast)) was 1.8e-06 M and 1.78e-06 M and the IC50 (EFO-27 (Ovary)) was 9e-07 M. The IC50 (EPLC-272H (Lung)) was 5.08e-07 M and 5.1e-07 M, the IC50 (H4 (Brain)) was 8.08e-08 M and 8.1e-08 M and the IC50 (H460 (Lung)) was 5.1e-08 M and 5.12e-08 M. The IC50 (H1299 (Lung)) was 7.27e-07 M and 7.3e-07 M, the IC50 (H2228 (Lung)) was 3.99e-07 M and 4e-07 M and the IC50 (HCC38 (Breast)) was 1.65e-07 M and 1.7e-07 M. The IC50 (HCC202 (Breast)) was 9e-07 M and 8.97e-07 M, the IC50 (HCC827 (Lung)) was 1.4e-06 M and 1.38e-06 M and the IC50 (HCC 1569 (Breast)) was 9.9e-07 M and 9.93e-07 M. The IC50 (HCT116 (Colon)) was 4.41e-07 M and 4.4e-07 M, the pIC50 (HCT116) was 6.36 and the IC50 (HCT-15 (Colon)) was 5.46e-07 M and 5.5e-07 M. The pIC50 (HCT-15) was 6.26, the IC50 (HEC-1-A (Endometrium)) was 1.8e-06 M and 1.84e-06 M and the IC50 (HEC-1-B (Endometrium)) was 3.3e-06 M and 3.29e-06 M. For the same molecule, the IC50 (HL-60 (Blood)) was 1e-07 M and 1.01e-07 M, the pIC50 (HL-60) was 7.00 and the IC50 (HT-29 (Colon)) was 1e-06 M and 9.98e-07 M. For the same molecule, the pIC50 (HT-29) was 6.00, the IC50 (HT-1080 (Fibrosarcoma)) was 3.2e-07 M and the IC50 (Hep3B2.1-7 (Liver)) was 1.3e-06 M and 1.34e-06 M. The IC50 (Hs 746T (Stomach)) was 9.9e-07 M and 9.89e-07 M, the IC50 (HuH7 (Liver)) was 6.47e-07 M and 6.5e-07 M and the IC50 (Hutu 80 (Duodenum)) was 5.37e-08 M and 5.4e-08 M. The IC50 (Ishikawa (Endometrium)) was 2.6e-08 M and 2.61e-08 M, the IC50 (J82 (Bladder)) was 7.2e-07 M and the IC50 (JIMT-1 (Breast)) was 1.6e-06 M. The IC50 (JVM-3 (Blood)) was 3.14e-08 M and 3.1e-08 M, the IC50 (Jurkat (Blood)) was 9.37e-08 M and 9.4e-08 M and the IC50 (K562 (Blood)) was 1.1e-06 M and 1.11e-06 M. For the same molecule, the IC50 (KARPAS 299 (Blood)) was 7.07e-07 M and 7.1e-07 M, the IC50 (KG-1 (Blood)) was 6.22e-07 M and 6.2e-07 M and the IC50 (KG-1 a (Blood)) was 5.5e-07 M. The IC50 (KMS-12-BM (Blood)) was 3.43e-07 M and 3.4e-07 M, the IC50 (Kato III (Stomach)) was 1.6e-06 M and 1.62e-06 M and the IC50 (LN229 (Brain)) was 7.23e-07 M and 7.2e-07 M. For the same molecule, the IC50 (LOU-NH91 (Lung)) was 3.1e-07 M and 3.07e-07 M, the IC50 (LOVO (Colon)) was 2.22e-07 M and 2.2e-07 M and the IC50 (LP-1 (Blood)) was 7.2e-07 M and 7.16e-07 M. For the same molecule, the IC50 (LnCap (Prostate)) was 8.9e-07 M and 8.94e-07 M, the IC50 (M07e (Blood)) was 1.38e-07 M and 1.4e-07 M and the IC50 (MCAS (Ovary)) was 8.2e-07 M and 8.18e-07 M. For the same molecule, the IC50 (MCF-7 (Breast)) was 2.1e-07 M and 2.15e-07 M, the IC50 (MDA MB 231 (Breast)) was 7.4e-07 M and the IC50 (MDA MB 435 (Skin)) was 1.1e-06 M and 1.08e-06 M. The IC50 (MDA-MB-468 (Breast)) was 1.5e-07 M and 1.48e-07 M.
